For one assay, the system named is TRPC4 channels. More on the design: method as in PubChem AID 434942 – SID 865888. As to conditions: ref PubChem AID 434942 – SID 865888; cited from earlier work.
The next assay deals with T1, TRPC4:C4 (Homo sapiens, UniProt Q9UBN4).
T1 construct: expressed in transfected cells; host or cells: HEK T-REx (tetracycline-induced)
T1 sequence (Q9UBN4 1-893 isoform Q9UBN4-2): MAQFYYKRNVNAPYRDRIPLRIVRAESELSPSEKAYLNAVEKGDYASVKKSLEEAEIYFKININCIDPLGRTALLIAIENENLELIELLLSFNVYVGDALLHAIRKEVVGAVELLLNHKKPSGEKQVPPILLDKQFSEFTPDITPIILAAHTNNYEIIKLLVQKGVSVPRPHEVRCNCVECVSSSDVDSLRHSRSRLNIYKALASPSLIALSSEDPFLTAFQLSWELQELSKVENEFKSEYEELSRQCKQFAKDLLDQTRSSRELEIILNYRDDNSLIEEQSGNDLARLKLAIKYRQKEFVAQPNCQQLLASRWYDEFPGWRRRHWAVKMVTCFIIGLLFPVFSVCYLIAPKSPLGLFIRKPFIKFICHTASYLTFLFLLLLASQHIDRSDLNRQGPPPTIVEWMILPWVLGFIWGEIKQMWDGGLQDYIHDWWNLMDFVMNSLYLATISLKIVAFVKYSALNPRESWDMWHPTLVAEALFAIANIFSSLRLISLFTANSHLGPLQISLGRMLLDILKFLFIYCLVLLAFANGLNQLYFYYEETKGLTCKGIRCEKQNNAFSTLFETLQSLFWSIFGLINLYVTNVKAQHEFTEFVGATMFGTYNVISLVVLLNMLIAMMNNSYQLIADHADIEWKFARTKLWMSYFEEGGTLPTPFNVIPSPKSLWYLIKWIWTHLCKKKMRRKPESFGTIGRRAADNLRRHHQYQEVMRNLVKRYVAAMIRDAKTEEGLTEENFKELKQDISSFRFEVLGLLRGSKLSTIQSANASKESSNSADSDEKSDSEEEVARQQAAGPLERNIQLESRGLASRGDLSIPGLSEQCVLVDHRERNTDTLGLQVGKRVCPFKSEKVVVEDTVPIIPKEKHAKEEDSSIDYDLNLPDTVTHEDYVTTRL
Briefly: [Ca2+]i recordings (Fura-2), TRPC4:C4 in HEK T-REx cells. The assay is classed as cell-based. The conditions noted are these: for IC50: HEK T-REx. Here is the method:
Based on the findings described above, we wondered whether AC1903—which is typically used as a TRPC5 inhibitor at concentrations of 30–100 μM in cellular assays ([29], [56])—might have limited selectivity for TRPC5 channels and whether its effect on intracellular G418 levels and PTC readthrough might be the consequence of inhibition of other or multiple targets. All well-characterized TRPC channel inhibitors reported to date modulate multiple TRP(C) channels ([34], [35], [36]). […] Because limited data for the selectivity of AC1903 are available in the public domain, we decided to profile AC1903 against a selection of calcium-permeable cation channels by intracellular calcium ([Ca^2+]i) recordings using well-characterized cell lines and TRP channel activators ([46], [57], [58]), and the Ca^2+ indicator Fura-2. In these assays, cells (HEK 293, HEK T-REx, or CHO) overexpressing the relevant ion channel protein and loaded with Fura-2 AM (a cell-permeable precursor of Fura-2) were preincubated with various concentrations of AC1903 or vehicle (DMSO) for 30 min. Then, changes in ratiometric fluorescence (from background) were recorded upon addition of the respective ion channel activator.
Figure 4 AC1903 inhibits multiple TRP channels.A and C, representative [Ca^2+]i measurements from a single 96-well plate (N = 6; mean ± SD over technical replicates) showing inhibition of EA-mediated [Ca^2+]i responses by 0.1 to 100 μM AC1903 in (Tet+) HEK T-REx cells expressing TRPC5 (A) or TRPC4 (C). B and D, concentration–response data for experiments in (A) and (C) (scatter plots showing normalized data for three independent experiments; n/N = 3/18). Responses were calculated at 250 to 295 s compared to [Ca^2+]i at baseline (0–55 s). E and G, representative [Ca^2+]i measurements from a single 96-well plate (N = 6; mean ± SD over technical replicates) showing inhibition of OAG-mediated [Ca^2+]i responses by 0.1 to 100 μM AC1903 in (Tet+) HEK T-REx cells expressing TRPC3 (E) and WT HEK 293 cells transiently expressing TRPC6 (G). F and H, concentration–response data for experiments in (E) and (G) (scatter plots showing normalized data for three independent experiments; n/N = 3/18). Responses were calculated at 90 to 110 s compared with [Ca^2+]i at baseline (0–55 s). I, representative [Ca^2+]i measurements from a single 96-well plate (N = 6; mean ± SD over technical replicates) showing inhibition of the 4α-PDD-mediated [Ca^2+]i response by 0.1 to 100 μM AC1903 in CHO cells stably expressing TRPV4. J, concentration–response data for experiments in (I) (scatter plot showing normalized data for three independent experiments; n/N = 3/18). Responses were calculated at 290 to 300 s compared with [Ca^2+]i baseline (0–55 s). EA, (-)-englerin A; TRPC, transient receptor potential canonical. […]

Turning to `c1ccc(Cn2c(NCc3ccco3)nc3ccccc32)cc1` [AC1903], the half-maximal inhibitory concentration (IC50) (commonly the concentration needed to halve the response being measured) is 600 nM in the assay on TRPC4 channels, 2100 nM at TRPC4:C4 (activator EA (30 nM)) and 1800 nM on TRPC4:C4 (activator S1P (10 μM)). Also, the results for the Hill slope at TRPC4:C4 (activator EA (30 nM)) and at TRPC4:C4 (activator S1P (10 μM)) were -1.7 and -1.9, respectively.
